Results on two molecules are retold here after ChEMBL document CHEMBL4334438, “Discovery of novel glycogen synthase kinase-3α inhibitors: Structure-based virtual screening, preliminary SAR and biological evaluation for treatment of acute myeloid leukemia” (Eur J Med Chem, 2019).

Test [1] has as its target ALK tyrosine kinase receptor (Homo sapiens) (UniProt Q9UM73). In words: Inhibition of human ALK (1058 to end residues) assessed as residual activity at 1 uM using KKKSPGEYVNIEFG as substrate incubated for 40 mins in presence of [gamma-33ATP] by scintillation counting based radiometry assay relative to control.
The target in test [2] is Serine/threonine-protein kinase PAK 6 (Homo sapiens) (UniProt Q9NQU5). The experiment in a line: Inhibition of recombinant human PAK6 (382 to end residues) assessed as residual activity at 1 uM using RRRLSFAEPG as substrate measured after 40 mins in presence of [gamma33P]ATP by scintillation counting method relative to control.
Test [3] addresses Insulin-like growth factor 1 receptor (Homo sapiens) (UniProt P08069). The experiment in a line: Inhibition of human activated IGF1R (959 to end residues) assessed as residual activity at 1 uM using KKKSPGEYVNIEFG as substrate after 40 mins by [gamma-33ATP] radiometric assay relative to control.
Test [4] concerns the target Calcium/calmodulin-dependent protein kinase type 1G (Homo sapiens) (UniProt Q96NX5). The experiment in a line: Inhibition of recombinant full length human CaMKIgamma assessed as residual activity at 1 uM using KKLRRTLSFAEPG as substrate incubated for 40 mins in presence of [gamma-33ATP] by scintillation counting based radiometry assay relative to control.
Test [5] addresses Dual specificity mitogen-activated protein kinase kinase 2 (Homo sapiens) (UniProt P36507). In words: Inhibition of recombinant human MEK2 assessed as residual activity at 1 uM using MBP as substrate incubated for 40 mins in presence of [gamma-33ATP by scintillation counting based radiometry assay relative to control.
In test [6] the target is Serine/threonine-protein kinase 33 (Homo sapiens) (UniProt Q9BYT3). The experiment in a line: Inhibition of recombinant full-length human STK33 at 1 uM assessed as residual activity at 1 uM using myelin basic protein as substrate measured after 40 mins in presence of [gamma33P]ATP by scintillation counting method relative to control.
The target in test [7] is Activated CDC42 kinase 1 (Homo sapiens) (UniProt Q07912). In words: Inhibition of human ACK1 (1 to 389 residues) assessed as residual activity at 1 uM using EFPIYDFLPAKKK as substrate incubated for 40 mins in presence of [gamma-33ATP] by scintillation counting based radiometry assay relative to control.
Test [8] has as its target Beta-adrenergic receptor kinase 1 (Homo sapiens) (UniProt P25098). The experiment in a line: Inhibition of recombinant full length human GRK2 assessed as residual activity at 1 uM using casein as substrate at 40 mins in presence of [gamma-33ATP] by scintillation counting based radiometry assay relative to control.
Test [9] addresses [Pyruvate dehydrogenase (acetyl-transferring)] kinase isozyme 4, mitochondrial (Homo sapiens) (UniProt Q16654). In words: Inhibition of recombinant human full length PDHK4 assessed as residual activity at 1 uM using KKKYHGHSMSDPGVSYRT as substrate measured after 40 mins in presence of [gamma33P]ATP by scintillation counting method relative to control.
Test [10] has as its target TRAF2 and NCK-interacting protein kinase (Homo sapiens) (UniProt Q9UKE5). In words: Inhibition of human TNIK (1 to 367 residues) assessed as residual activity at 1 uM using RLGRDKYKTLRQIRQ as substrate measured after 40 mins in presence of [gamma33P]ATP by scintillation counting method relative to control.
For test [11], the target named is Hepatocyte growth factor receptor (Homo sapiens) (UniProt P08581). The experiment in a line: Inhibition of recombinant human MET A1209G/V1290L mutant (974 to end residues) assessed as residual activity at 1 uM using KKKGQEEEYVFIE as substrate incubated for 40 mins in presence of [gamma-33ATP by scintillation counting based radiometry assay relative to control.

In test [12] the target is Serine/threonine-protein kinase 32B (Homo sapiens) (UniProt Q9NY57). In words: Inhibition of recombinant full-length human STK32B at 1 uM assessed as residual activity at 1 uM using casein as substrate measured after 120 mins in presence of [gamma33P]ATP by scintillation counting method relative to control.
Test [13] addresses Tyrosine-protein kinase JAK2 (Homo sapiens) (UniProt O60674). In words: Inhibition of human JAK2 (808 to end residues) assessed as residual activity at 1 uM using KTFCGTPEYLAPEVRREPRILSEEEQEMFRDFDYIADWC as substrate after 40 mins by [gamma-33ATP] radiometric assay relative to control.
The subject of test [14] is PI3-kinase p110-alpha/p85-alpha (Homo sapiens), P27986+P42336 [H1047R]. The experiment in a line: Inhibition of recombinant full-length human PI3K p110alpha H1047R mutant/p85alpha assessed as residual activity at 1 uM assessed as residual activity at 1 uM using phosphatidylinositol-4, 5-bisphosphate as substrate incubated for 40 mins in presence of [gamma33P]ATP by scintillation counting based radiometry assay relative to control. Format: protein-complex assay.

Test [15] relates to Proto-oncogene tyrosine-protein kinase receptor Ret (Homo sapiens), P07949 [V804M]. The experiment in a line: Inhibition of recombinant human Ret V804M mutant (658 to end residues) assessed as residual activity at 1 uM using […] as substrate measured after 40 mins in presence of [gamma33P]ATP by scintillation counting method relative to control.
In test [16] the target is Serine/threonine-protein kinase TBK1 (Homo sapiens) (UniProt Q9UHD2). The experiment in a line: Inhibition of recombinant full-length human TBK1 at 1 uM assessed as residual activity at 1 uM using KRRRALS(p)VASLPGL as substrate measured after 40 mins in presence of [gamma33P]ATP by scintillation counting method relative to control.
Test [17] has as its system Discoidin domain-containing receptor 2 (Homo sapiens), Q16832 [UNDEFINED MUTATION]. In words: Inhibition of recombinant human DDR2 S642A mutant (467 to end residues) assessed as residual activity at 1 uM using KKSRGDYMTMQIG as substrate at 40 mins in presence of [gamma-33ATP] by scintillation counting based radiometry assay relative to control.
Test [18] deals with Glycogen synthase kinase-3 alpha (Homo sapiens), P49840 [UNDEFINED MUTATION]. In words: Inhibition of human GSK-3alpha S449A mutant (2 to end residues) assessed as residual activity at 1 uM using phospho GS2 peptide as substrate after 40 mins by [gamma-33ATP] radiometric assay.
Test [19] relates to Tyrosine-protein kinase ABL1 (Homo sapiens), P00519 [Y253F]. The experiment in a line: Inhibition of human ABL1 Y253F mutant (27 to end residues) assessed as residual activity at 1 uM using EAIYAAPFAKKK as substrate incubated for 40 mins in presence of [gamma-33ATP] by scintillation counting based radiometry assay relative to control.
The target of test [20] is Mitogen-activated protein kinase 9 (Homo sapiens) (UniProt P45984). The experiment in a line: Inhibition of human JNK2alpha2 assessed as residual activity at 1 uM using ATF2 as substrate after 40 mins by [gamma-33ATP] radiometric assay relative to control.
The target of test [21] is Inhibitor of nuclear factor kappa-B kinase subunit beta (Homo sapiens) (UniProt O14920). The experiment in a line: Inhibition of full length human IKKbeta assessed as residual activity at 1 uM using peptide as substrate after 40 mins by [gamma-33ATP] radiometric assay relative to control.

Beta-adrenergic receptor kinase 1 (Homo sapiens), sequence (P25098 whole entry): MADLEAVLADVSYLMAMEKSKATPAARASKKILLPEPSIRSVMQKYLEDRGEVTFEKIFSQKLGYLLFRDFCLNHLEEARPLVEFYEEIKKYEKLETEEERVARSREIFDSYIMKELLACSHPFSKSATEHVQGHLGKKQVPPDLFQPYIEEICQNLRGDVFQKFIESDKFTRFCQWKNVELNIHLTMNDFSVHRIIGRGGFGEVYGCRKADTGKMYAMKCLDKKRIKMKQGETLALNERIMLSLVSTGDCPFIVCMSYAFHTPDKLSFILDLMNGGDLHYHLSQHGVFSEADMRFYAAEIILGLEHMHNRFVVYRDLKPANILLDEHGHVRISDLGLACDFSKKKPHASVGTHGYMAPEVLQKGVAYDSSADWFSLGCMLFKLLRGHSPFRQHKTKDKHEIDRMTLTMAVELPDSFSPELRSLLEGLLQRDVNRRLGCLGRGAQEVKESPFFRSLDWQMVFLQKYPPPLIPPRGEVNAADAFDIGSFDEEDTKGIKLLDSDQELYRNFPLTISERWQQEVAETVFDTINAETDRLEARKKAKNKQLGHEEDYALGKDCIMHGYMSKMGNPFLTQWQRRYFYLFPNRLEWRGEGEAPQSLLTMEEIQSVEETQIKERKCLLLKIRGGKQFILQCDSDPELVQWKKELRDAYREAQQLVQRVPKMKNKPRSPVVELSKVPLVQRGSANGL
Serine/threonine-protein kinase PAK 6 (Homo sapiens), sequence (Q9NQU5 whole entry, looked up): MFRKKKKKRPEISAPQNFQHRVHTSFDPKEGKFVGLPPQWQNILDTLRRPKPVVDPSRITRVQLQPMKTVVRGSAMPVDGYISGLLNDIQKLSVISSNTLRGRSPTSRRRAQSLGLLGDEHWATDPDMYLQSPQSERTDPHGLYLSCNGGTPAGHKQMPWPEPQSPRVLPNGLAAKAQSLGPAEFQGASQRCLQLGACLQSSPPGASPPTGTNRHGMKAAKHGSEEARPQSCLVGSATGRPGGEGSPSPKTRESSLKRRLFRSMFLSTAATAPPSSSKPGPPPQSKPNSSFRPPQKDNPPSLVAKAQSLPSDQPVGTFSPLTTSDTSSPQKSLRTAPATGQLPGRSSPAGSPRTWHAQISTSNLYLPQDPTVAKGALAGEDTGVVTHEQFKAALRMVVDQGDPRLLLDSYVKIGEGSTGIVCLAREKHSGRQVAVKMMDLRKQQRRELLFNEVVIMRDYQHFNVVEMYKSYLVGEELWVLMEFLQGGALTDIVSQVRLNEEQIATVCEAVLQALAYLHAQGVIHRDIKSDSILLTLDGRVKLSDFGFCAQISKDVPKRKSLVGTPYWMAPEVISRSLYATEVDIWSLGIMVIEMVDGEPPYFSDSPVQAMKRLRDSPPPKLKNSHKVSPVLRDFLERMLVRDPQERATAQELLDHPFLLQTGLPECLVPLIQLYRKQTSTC
Hepatocyte growth factor receptor (Homo sapiens), sequence (P08581 whole entry): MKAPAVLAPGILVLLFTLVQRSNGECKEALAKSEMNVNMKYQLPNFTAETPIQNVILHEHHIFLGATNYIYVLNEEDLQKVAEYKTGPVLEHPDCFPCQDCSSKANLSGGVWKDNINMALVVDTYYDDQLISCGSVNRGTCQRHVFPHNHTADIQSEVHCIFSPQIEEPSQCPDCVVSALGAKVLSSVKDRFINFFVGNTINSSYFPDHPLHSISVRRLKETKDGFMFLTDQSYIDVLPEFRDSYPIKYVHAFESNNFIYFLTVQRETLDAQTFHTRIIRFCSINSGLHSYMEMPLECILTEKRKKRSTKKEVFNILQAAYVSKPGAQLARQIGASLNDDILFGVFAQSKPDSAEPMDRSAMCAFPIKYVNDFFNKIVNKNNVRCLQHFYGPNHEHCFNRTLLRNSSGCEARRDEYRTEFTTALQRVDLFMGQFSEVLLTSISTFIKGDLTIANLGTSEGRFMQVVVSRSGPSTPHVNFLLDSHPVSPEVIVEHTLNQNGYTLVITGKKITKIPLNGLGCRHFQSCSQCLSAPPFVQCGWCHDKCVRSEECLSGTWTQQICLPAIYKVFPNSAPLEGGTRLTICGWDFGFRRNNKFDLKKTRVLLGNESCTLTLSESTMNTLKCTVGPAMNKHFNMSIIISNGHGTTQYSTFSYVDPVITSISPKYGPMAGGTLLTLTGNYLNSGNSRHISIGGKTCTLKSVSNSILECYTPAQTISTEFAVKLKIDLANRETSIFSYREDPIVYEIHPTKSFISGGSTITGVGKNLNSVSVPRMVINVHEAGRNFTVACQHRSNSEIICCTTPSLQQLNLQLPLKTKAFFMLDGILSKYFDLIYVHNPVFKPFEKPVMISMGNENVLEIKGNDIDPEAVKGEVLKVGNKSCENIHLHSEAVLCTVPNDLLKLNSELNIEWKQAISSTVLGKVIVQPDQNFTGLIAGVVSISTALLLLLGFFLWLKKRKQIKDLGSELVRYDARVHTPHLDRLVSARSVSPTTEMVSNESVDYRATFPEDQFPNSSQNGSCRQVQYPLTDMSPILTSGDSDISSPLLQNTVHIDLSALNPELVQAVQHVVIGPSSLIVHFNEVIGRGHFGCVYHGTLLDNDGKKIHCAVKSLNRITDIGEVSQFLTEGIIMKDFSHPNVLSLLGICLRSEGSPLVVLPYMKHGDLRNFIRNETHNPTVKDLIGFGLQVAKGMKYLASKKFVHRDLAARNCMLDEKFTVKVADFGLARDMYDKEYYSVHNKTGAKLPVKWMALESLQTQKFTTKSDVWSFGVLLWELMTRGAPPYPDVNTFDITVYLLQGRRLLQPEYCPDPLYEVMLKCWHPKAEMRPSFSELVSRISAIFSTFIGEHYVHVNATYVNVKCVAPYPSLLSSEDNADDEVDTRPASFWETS
Proto-oncogene tyrosine-protein kinase receptor Ret (Homo sapiens), P07949 [V804M], sequence (P07949 whole entry V804M): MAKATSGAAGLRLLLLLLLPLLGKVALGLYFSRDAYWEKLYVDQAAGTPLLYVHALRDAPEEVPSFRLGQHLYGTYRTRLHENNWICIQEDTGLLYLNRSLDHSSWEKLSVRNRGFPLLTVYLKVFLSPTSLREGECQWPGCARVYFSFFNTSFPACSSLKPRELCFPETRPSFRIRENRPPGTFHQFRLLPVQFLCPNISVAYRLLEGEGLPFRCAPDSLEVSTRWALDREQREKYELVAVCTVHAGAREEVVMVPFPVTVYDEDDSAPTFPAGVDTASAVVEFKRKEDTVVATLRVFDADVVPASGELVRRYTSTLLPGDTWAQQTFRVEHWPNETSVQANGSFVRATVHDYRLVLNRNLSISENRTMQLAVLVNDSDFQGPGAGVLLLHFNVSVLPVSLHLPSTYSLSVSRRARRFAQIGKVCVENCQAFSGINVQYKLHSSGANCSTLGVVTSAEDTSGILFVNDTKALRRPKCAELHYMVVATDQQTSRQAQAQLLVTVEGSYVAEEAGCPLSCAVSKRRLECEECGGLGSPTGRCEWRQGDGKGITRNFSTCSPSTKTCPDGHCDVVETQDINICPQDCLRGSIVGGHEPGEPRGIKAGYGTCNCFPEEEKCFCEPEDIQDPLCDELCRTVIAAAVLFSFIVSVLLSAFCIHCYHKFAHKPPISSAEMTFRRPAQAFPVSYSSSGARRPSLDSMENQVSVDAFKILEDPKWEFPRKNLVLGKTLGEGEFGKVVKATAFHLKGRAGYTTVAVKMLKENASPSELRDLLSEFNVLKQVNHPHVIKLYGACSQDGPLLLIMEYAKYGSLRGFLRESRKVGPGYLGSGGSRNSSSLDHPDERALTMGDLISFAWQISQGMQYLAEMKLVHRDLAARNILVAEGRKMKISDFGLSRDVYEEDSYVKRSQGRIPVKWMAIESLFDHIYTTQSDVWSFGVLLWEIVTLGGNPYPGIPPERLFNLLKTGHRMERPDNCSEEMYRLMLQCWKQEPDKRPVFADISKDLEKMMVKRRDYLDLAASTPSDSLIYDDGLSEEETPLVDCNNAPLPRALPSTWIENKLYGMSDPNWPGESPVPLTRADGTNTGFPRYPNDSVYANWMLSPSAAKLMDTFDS
Discoidin domain-containing receptor 2 (Homo sapiens), Q16832 [UNDEFINED MUTATION], sequence (Q16832 whole entry, looked up, stated change not applied, the tested form may be a part): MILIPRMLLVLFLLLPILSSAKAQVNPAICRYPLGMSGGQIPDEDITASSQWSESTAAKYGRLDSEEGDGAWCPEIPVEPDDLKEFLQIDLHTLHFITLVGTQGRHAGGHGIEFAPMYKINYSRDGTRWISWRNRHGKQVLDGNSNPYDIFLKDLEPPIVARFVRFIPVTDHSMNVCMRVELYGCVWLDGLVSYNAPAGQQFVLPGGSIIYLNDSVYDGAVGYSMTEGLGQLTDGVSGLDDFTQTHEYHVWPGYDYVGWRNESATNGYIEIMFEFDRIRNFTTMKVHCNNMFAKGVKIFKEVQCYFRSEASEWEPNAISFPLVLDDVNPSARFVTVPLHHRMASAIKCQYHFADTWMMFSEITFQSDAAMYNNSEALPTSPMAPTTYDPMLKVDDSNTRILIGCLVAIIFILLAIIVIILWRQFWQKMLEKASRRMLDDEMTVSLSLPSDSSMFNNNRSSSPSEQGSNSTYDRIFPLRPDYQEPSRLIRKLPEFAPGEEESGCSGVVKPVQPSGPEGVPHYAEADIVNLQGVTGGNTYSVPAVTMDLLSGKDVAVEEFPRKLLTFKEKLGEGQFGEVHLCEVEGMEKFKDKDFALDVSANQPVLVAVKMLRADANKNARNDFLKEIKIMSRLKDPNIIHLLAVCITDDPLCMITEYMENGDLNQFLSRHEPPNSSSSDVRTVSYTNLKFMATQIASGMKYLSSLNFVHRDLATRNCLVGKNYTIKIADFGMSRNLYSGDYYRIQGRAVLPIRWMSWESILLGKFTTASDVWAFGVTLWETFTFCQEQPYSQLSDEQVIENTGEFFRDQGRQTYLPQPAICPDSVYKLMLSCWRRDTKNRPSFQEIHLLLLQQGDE

`N=C1NC(=O)/C(=C\c2ccc(-c3cccc([N+](=O)[O-])c3)o2)S1`: the Activity in test [1] came to 98%; in [2] it was 91%; in [3], 99%; in test [4], 99%; in test [5], 100%; in test [6], 88%. For the same molecule, the Activity in test [7] was found to be 93%; in test [8] it was 98%; in test [9] it was 103%; in [10] it was 74%; in [11] it was 96%; in [12], 102%. Also, the Activity was 102% in [13]; 100% in test [14]; 95% in test [15]; 105% in test [16]; 108% in test [17]; 8% in test [18]. Moreover, the figures for the Activity in test [19], in test [20] and in [21] were 94%, 103% and 62%, respectively.
With `C=CCOC(=O)c1cc(-c2ccc(/C=C3/NC(=S)NC3=O)o2)ccc1Cl`, the Activity in test [1] was 90%; in [2], 107%; in test [3], 96%; in test [4], 92%; in test [5] it was 104%; in test [6], 96%. The Activity in test [7] was found to be 96%; in test [8], 101%; in test [9] it was 100%; in test [10], 52%; in test [11] it was 102%; in test [12], 86%. Besides, the Activity in [13] came out at 108%; in [14] it was 94%; in test [15] it was 98%; in [16], 98%; in test [17] it was 105%; in test [18], 10%. For the same molecule, the Activity was 88% in test [19], 109% in [20] and 129% in [21].
